According to patent US20160256504A1, “[…] COMPOSITION CONTAINING […] MUSHROOM [[…] EDODES] […] CULTURE AND NATTO BACTERIA [BACILLUS SUBTILIS NATTO] CULTURE” (HK Biotech Co., LTD., priority 2014, published 2016):

Key:
[1] = tested on: plasma plasminogen activator inhibitor-1 (PAI-1); test: Plasma PAI-1 content in SHR after 4-week treatment; type: in vivo, rat
blood homocysteine = conditions: rats, hyperhomocysteinemia induced by guanidinoacetic acid injection, EA injected; cited from earlier work
NOS = NOS activity in NAME-induced hypertensive rat model; type: in vivo; conditions: NAME-induced hypertensive rats
Experimental: (§1) The biochemical markers relating to the blood pressure were measured, by collecting blood and organs of the rats used in the experimental examples 1 (non-genetic NAME-induced hypertension) and 3 (4-week-treatments on SHR). […] And from the rats of the experimental example 3, ACE activity and the activity of plasma plasminogen activator inhibitor-1 (PAI-1) of the plasma and the livers were measured. […] The following TABLE 5 is describing NO content and NOS activity of shiitake mushroom mycelium culture and natto bacteria culture mixture in the NAME-induced hypertensive rat model.

NO = NO content in NAME-induced hypertensive rat model; type: in vivo; conditions: NAME-induced hypertensive rats
Experimental: as §1

Compound: C[C@H](CS)C(=O)N1CCC[C@H]1C(=O)O [CP, captopril]
- Plasma PAI-1 ([1]; 0 week): 113 pg/mL
- Plasma PAI-1 ([1]; 4 weeks): 127 pg/mL

Compound: Nc1ncnc2c1ncn2C[C@@H](O)[C@@H](O)C(=O)O [EA, eritadenine]
- blood homocysteine (blood homocysteine): reduced

Compound: NNc1nncc2ccccc12 [hydralazine]
- NOS Aorta (NOS; 0 week): 0.80 NO pmle/mg protein/min
- NOS Aorta (NOS; 4 weeks): 1.08 NO pmle/mg protein/min
- NOS Plasma (NOS; 0 week): 6.0 NO umole/L
- NOS Plasma (NOS; 4 weeks): 8.5 NO umole/L
- NO Lung (NO; 0 week): 10 nM/ml
- NO Lung (NO; 4 weeks): 7 nM/ml
- NO Plasma (NO; 0 week): 21 nM/ml
- NO Plasma (NO; 4 weeks): 20 nM/ml
